# Laboratory results: patent US20120010229A1, “THERAPEUTIC REGIMENS FOR HEDGEHOG-ASSOCIATED CANCERS” (priority 2010, published 2012)
# Entries after “also recorded” stand apart in the source; their conditions may differ.
# Tests used:
# [1] = system: L3.6pl P-lucky liver metastasis; assay: L3.6pl liver metastasis model, Study #2; type: in vivo
# Protocol: Model Procedure: Animals were anesthetized and prepared for surgery. The animal's spleen was exposed and 100 μl (1 million cells) of the L3.6pl single cell suspension was injected directly in the spleen towards the splenic vein (intra splenic injection). Once the injection was complete, the splenic artery and splenic vein were ligated, the spleen was excised, and the animals' wounds were closed. Post-op care and analgesia was given for 4 consecutive days and animals were monitored for recovery.
# Prior to the procedure listed above 48 animals were separated into […].
# Animals in group 2 (Day-of-Treatment), received IPI-926 every-other-day beginning on the day of the intra splenic injection procedure, continuing until the study end.
# Animals in group 3 (Pre-Treatment Day −2), received IPI-926 every-other-day starting two days prior to the day of the intra splenic injection procedure, continuing until the study end.
# Animals in group 4 (Pre-Treatment Day −7), received IPI-926 every-other-day starting seven days prior to the day of the intra splenic injection procedure, continuing until the study end.
# Animals in group 5 (Pre-Treatment Day −14—treatment stopped on Day 0), received IPI-926 every-other-day starting fourteen days prior to the day of the intra splenic injection procedure and ending on the day of implant.
# Animals in group 6 (Pre-Treatment Day −14), received IPI-926 every-other-day starting fourteen days prior to the day of the intra splenic injection procedure, continuing until the study end.
# Results Procedure: Animals were injected with 10 ml/kg of luciferin concentrated at […] via I.P. injection. This luciferin binds to the L3.6pl P-Lucky cells injected on day 0. Utilizing Calipers Xenogen© machine, this cell-luciferin association emits bioluminescence that can be read and quantified.
# Results: FIGS. 12A-12B represent the results from the quantification, normalized on each day to the average of vehicle treated animals. This normalization was done using the formula: (1/(average flux of vehicle animals/average flux of group X (group being compared))).
# [2] = system: Smoothened bearing the A1 point mutation; assay: Shh pathway inhibition in Smo/Smo (SmoA1) mouse medulloblastoma; type: in vivo
# Source text: Two mouse medulloblastoma models were considered for these studies. In the Smo/Smo model, the constitutively active Smoothened (SmoA1) transgene is driven by a fragment of the mouse NeuroD2 promoter (Hallahan et al., (2004) Cancer Research 64: 7794-7800). Over 90% of Smo/Smo mice develop subclinical, localized medulloblastomas by one month of age and they typically become symptomatic and moribund 3-5 months later (Hatton et al., (2008) Cancer Research 68: 1768-1776). In this model, Smoothened is activated by a W539L point mutation (SmoA1) in the seventh transmembrane domain (Xie et al. (1998) Nature 391: 90-92; Taipale et al., (2000) Nature 406:1005-1009). While this model is ideal for many pre-clinical medulloblastoma therapeutic trials, it was previously reported that the introduced SmoA1 point mutation reduced the affinity of cyclopamine for Smoothened in tissue culture cells (Taipale et al., (2000) Nature 406:1005-1009). Tests were performed to determine whether doses of IPI-926 that were effective in other mouse model studies were sufficient to block the Shh pathway in Smo/Smo mouse tumors. […] Therefore, a different medulloblastoma model was used.
# [3] = system: KPC mice pancreatic tumors; conditions: combination of IPI-926 and Gemcitabine; cited from earlier work
# [4] = system: primary serous ovarian cancer xenograft; assay: Primary serous ovarian cancer xenograft, post carboplatin/taxol; type: in vivo, NOD/SCID mice
# Protocol: The effects of IPI-926 were examined following carboplatin/taxol combination chemotherapy in a series of primary ovarian cancer xenograft models.
# 1) IPI-926 was given daily, oral at 40 mg/kg
# 2) The taxol/carboplatinum was given: • a. Intraperitoneal Carboplatinum 50 mg/kg every 7 days • b. Intraperitoneal Paclitaxel 15 mg/kg every 7 days
# Days of carboplatin/taxol and IPI-926 administration are indicated by the arrows. […] The inhibitory effects of IPI-926 persisted after discontinuing administration of IPI-926. Thus, IPI-926 can be useful as maintenance therapy in ovarian cancer.
# Excess ovarian tumor tissue from patients was collected. Histologically confirmed papillary serous ovarian tumors was disaggregated into purified tumor cells devoid of hematologic components. These cells were suspended in a 1:1 PBS:Matrigel®. A suspension of a specified number of cells was injected subcutaneously (SC) into 6 week old NOD/SCID mice (NOD/LtSz-Prkdcscid/J; 6-8 weeks; Jackson Labs). The mice were housed and maintained in accordance with the institutional guidelines and tumor formation in the injected animals is monitored regularly. Subcutaneous tumors were measured weekly with calipers, and the volume (in mm^3) was determined using the formula: [length (mm)×width (mm)×width (mm)]/2. Animals were euthanized when they become moribund or had evident excessive tumor burden. For continued propagation in mice, the generated tumors were excised and processed as described for the primary tumor samples, depleted of mouse H2 Kd+ cells (MACS beads) and re-injected subcutaneously into new recipient NOD/SCID mice. All tumor cells utilized for these experiments underwent at least 3 passages to ensure the presence of a tumor initiating population. Histology of each generation was evaluated to confirm the maintenance of papillary serous histology.
# Following serial transplantation, a minimum of 40 tumor-bearing mice (300-600 mm^3) were treated with vehicle or paclitaxel (15 mg/kg) and carboplatinum (50 mg/kg) (T/C) IP q 7 days. […] Tumor volume and mouse weights were regularly assessed. […]
# Tolerability in mice = type: in vivo; conditions: incl. daily 20 mg/kg for greater than 60 days and once-weekly 70 mg/kg
# Source text: Studies that are currently underway in pediatric patients and those being planned must consider the permanent changes on cartilage and bone formation observed in young mice as a result of treatment with the HhAntag Smoothened inhibitor (Kimura et al., (2008) Cancer Cell 13: 249-260). The extent to which this on-target toxicity is species specific remains unknown at this time.
smiles,measurement,setting,value
CC1=C2C[C@H]3[C@@H](CC[C@@H]4C[C@H](NS(C)(=O)=O)CC[C@@]43C)[C@@H]2CC[C@@]2(C1)O[C@@H]1C[C@H](C)CN[C@H]1[C@H]2C [IPI-926],take or growth of metastasis within the liver,[1]; 2 days of pre treatment,no effect
same,overall survival vs vehicle,[1]; 7 days of pre-treatment,survival benefit
same,overall survival vs vehicle,[1]; 14 days of pre-treatment then stopping,survival benefit
same,reduction in luminescence below vehicle,"[1]; 14 days prior to implant then stopping dosing, early time point",roughly 15 fold
same,decrease in bioluminescence compared to vehicle,"[1]; 14 days prior to implant then stopping dosing, latest time point",5 fold
same,take or growth of metastasis within the liver,[1]; day of implant treatment,no effect
same,overall survival vs vehicle,[1]; pre-treatment beginning at day -2,limited survival benefits
same,reduction in bioluminescence below vehicle,[1]; treatment from 7 days prior to implant,10-15 fold
same,"increase of overall survival rate, factor",[1]; treatment from 14 days prior to implant,≥ 2
same,reduction in flux (bioluminescence) below vehicle,"[1]; treatment from 14 days prior to implant, continued",20-25 fold
same,overall survival vs vehicle,"[1]; treatment starting on the day of implant, day 0",no benefit
same,proliferation or apoptosis,[2]; Smo/Smo mouse model,no detectable effect
same,expression of Gli1,[2]; Smo/Smo mouse tumors,unaffected
same,intratumoral vascular density and gemcitabine concentration,[3],transient increase in intratumoral vascular density and intratumoral concentration of gemcitabine
same,"percent tumor volume, IPI-926 alone","[4]; after 20 days of treatment, vs control treated mice",smaller percent tumor volume (p<0.007)
same,tumor volume after cessation of carboplatin/taxol chemotherapy,"[4]; carboplatin/taxol followed by IPI-926 40 mg/kg oral, vs followed by vehicle, 40 mg/kg",prolonged duration of the tumor inhibition; also recorded: smaller percent tumor volume (p<0.02)
same,mGLI-1 mRNA in tumor,[4]; primary xenograft model of ovarian cancer,modulate mGLI-1
same,tolerability,Tolerability in mice,well tolerated
